The supplement of paper PMC10307832

Tests used:
Assay in all cases: relative viability (nuclei count vs DMSO), 5 days (fraction); higher = more cells survive
A-427 = test system: A-427
Summary of the method: (§1)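 Lung cancer cell lines in 1536-well plates were dosed by pin tool the day after seeding, either with one drug alone or with a fixed anchor-drug dose plus five library-drug doses (not always all listed) in √10 steps. After 5 days, cells were fixed and their nuclei stained in one step (final 0.05% Triton X-100, 1% formaldehyde, 1 ug/ml Hoechst), then counted on 4× images. Relative viability is the nuclei count in treated wells divided by that in vehicle wells. Values are medians of duplicate plates.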

COR-L 105 = test system: COR-L 105
Summary of the method: as §1

H3255 = test system: H3255
Summary of the method: as §1

HCC-44 = test system: HCC-44
Summary of the method: as §1

HCC-827 = test system: HCC-827
Summary of the method: as §1

LCLC-103H = test system: LCLC-103H
Summary of the method: as §1

LOU-NH91 = test system: LOU-NH91
Summary of the method: as §1

LXF-289 = test system: LXF-289
Summary of the method: as §1

NCI-H1792 = test system: NCI-H1792
Summary of the method: as §1

NCI-H1793 = test system: NCI-H1793
Summary of the method: as §1

NCI-H1915 = test system: NCI-H1915
Summary of the method: as §1

NCI-H1944 = test system: NCI-H1944
Summary of the method: as §1

NCI-H1975 = test system: NCI-H1975
Summary of the method: as §1

NCI-H1993 = test system: NCI-H1993
Summary of the method: as §1

NCI-H2023 = test system: NCI-H2023
Summary of the method: as §1

NCI-H2087 = test system: NCI-H2087
Summary of the method: as §1

NCI-H2170 = test system: NCI-H2170
Summary of the method: as §1

NCI-H358 = test system: NCI-H358
Summary of the method: as §1

NCI-H520 = test system: NCI-H520
Summary of the method: as §1

NCI-H522 = test system: NCI-H522
Summary of the method: as §1

SK-MES-1 = test system: SK-MES-1
Summary of the method: as §1

SW 1573 = test system: SW 1573
Summary of the method: as §1

SW 900 = test system: SW 900
Summary of the method: as §1

SMILES: Cc1cn(-c2cc(NC(=O)c3ccc(C)c(Nc4nccc(-c5cccnc5)n4)c3)cc(C(F)(F)F)c2)cn1 [Nilotinib] + Nc1ncn([C@H]2C[C@H](O)[C@@H](CO)O2)c(=O)n1 [Decitabine] (partner 2 µM)
- relative viability (A-427; first compound 0.001 µM): 0.586
- relative viability (A-427; first compound 0.003162 µM): 0.565
- relative viability (A-427; first compound 0.01 µM): 0.658
- relative viability (A-427; first compound 0.03162 µM): 0.663
- relative viability (A-427; first compound 0.1 µM): 0.695
- relative viability (COR-L 105; first compound 0.001 µM): 0.735
- relative viability (COR-L 105; first compound 0.003162 µM): 0.734
- relative viability (COR-L 105; first compound 0.01 µM): 0.743
- relative viability (COR-L 105; first compound 0.03162 µM): 0.732
- relative viability (COR-L 105; first compound 0.1 µM): 0.751
- relative viability (H3255; first compound 0.001 µM): 0.549
- relative viability (H3255; first compound 0.003162 µM): 0.659
- relative viability (H3255; first compound 0.03162 µM): 0.667
- relative viability (H3255; first compound 0.1 µM): 0.692
- relative viability (HCC-44; first compound 0.001 µM): 0.922
- relative viability (HCC-44; first compound 0.003162 µM): 0.945
- relative viability (HCC-44; first compound 0.01 µM): 0.969
- relative viability (HCC-44; first compound 0.1 µM): 0.918
- relative viability (HCC-827; first compound 0.001 µM): 0.303
- relative viability (HCC-827; first compound 0.003162 µM): 0.41
- relative viability (HCC-827; first compound 0.03162 µM): 0.296
- relative viability (HCC-827; first compound 0.1 µM): 0.328
- relative viability (LCLC-103H; first compound 0.001 µM): 0.77
- relative viability (LCLC-103H; first compound 0.003162 µM): 0.883
- relative viability (LCLC-103H; first compound 0.01 µM): 0.815
- relative viability (LCLC-103H; first compound 0.03162 µM): 0.744
- relative viability (LCLC-103H; first compound 0.1 µM): 0.721
- relative viability (LOU-NH91; first compound 0.001 µM): 0.776
- relative viability (LOU-NH91; first compound 0.003162 µM): 0.864
- relative viability (LOU-NH91; first compound 0.01 µM): 0.889
- relative viability (LOU-NH91; first compound 0.03162 µM): 0.898
- relative viability (LOU-NH91; first compound 0.1 µM): 0.837
- relative viability (LXF-289; first compound 0.001 µM): 0.363
- relative viability (LXF-289; first compound 0.003162 µM): 0.447
- relative viability (LXF-289; first compound 0.01 µM): 0.391
- relative viability (LXF-289; first compound 0.03162 µM): 0.551
- relative viability (LXF-289; first compound 0.1 µM): 0.61
- relative viability (NCI-H1792; first compound 0.001 µM): 0.463
- relative viability (NCI-H1792; first compound 0.003162 µM): 0.691
- relative viability (NCI-H1792; first compound 0.01 µM): 0.66
- relative viability (NCI-H1792; first compound 0.03162 µM): 0.403
- relative viability (NCI-H1792; first compound 0.1 µM): 0.633
- relative viability (NCI-H1793; first compound 0.001 µM): 0.49
- relative viability (NCI-H1793; first compound 0.003162 µM): 0.263
- relative viability (NCI-H1793; first compound 0.01 µM): 0.87
- relative viability (NCI-H1793; first compound 0.03162 µM): 0.708
- relative viability (NCI-H1793; first compound 0.1 µM): 0.516
- relative viability (NCI-H1915; first compound 0.001 µM): 0.28
- relative viability (NCI-H1915; first compound 0.003162 µM): 0.271
- relative viability (NCI-H1915; first compound 0.01 µM): 0.255
- relative viability (NCI-H1915; first compound 0.03162 µM): 0.318
- relative viability (NCI-H1915; first compound 0.1 µM): 0.325
- relative viability (NCI-H1944; first compound 0.001 µM): 0.445
- relative viability (NCI-H1944; first compound 0.003162 µM): 0.505
- relative viability (NCI-H1944; first compound 0.01 µM): 0.512
- relative viability (NCI-H1944; first compound 0.03162 µM): 0.591
- relative viability (NCI-H1944; first compound 0.1 µM): 0.537
- relative viability (NCI-H1975; first compound 0.001 µM): 0.339
- relative viability (NCI-H1975; first compound 0.003162 µM): 0.393
- relative viability (NCI-H1975; first compound 0.01 µM): 0.383
- relative viability (NCI-H1975; first compound 0.03162 µM): 0.389
- relative viability (NCI-H1975; first compound 0.1 µM): 0.275
- relative viability (NCI-H1993; first compound 0.001 µM): 0.496
- relative viability (NCI-H1993; first compound 0.003162 µM): 0.694
- relative viability (NCI-H1993; first compound 0.01 µM): 0.658
- relative viability (NCI-H1993; first compound 0.03162 µM): 0.517
- relative viability (NCI-H1993; first compound 0.1 µM): 0.62
- relative viability (NCI-H2023; first compound 0.001 µM): 0.245
- relative viability (NCI-H2023; first compound 0.003162 µM): 0.296
- relative viability (NCI-H2023; first compound 0.01 µM): 0.334
- relative viability (NCI-H2023; first compound 0.03162 µM): 0.271
- relative viability (NCI-H2023; first compound 0.1 µM): 0.298
- relative viability (NCI-H2087; first compound 0.001 µM): 0.202
- relative viability (NCI-H2087; first compound 0.003162 µM): 0.244
- relative viability (NCI-H2087; first compound 0.01 µM): 0.261
- relative viability (NCI-H2087; first compound 0.03162 µM): 0.18
- relative viability (NCI-H2087; first compound 0.1 µM): 0.131
- relative viability (NCI-H2170; first compound 0.001 µM): 0.488
- relative viability (NCI-H2170; first compound 0.003162 µM): 0.553
- relative viability (NCI-H2170; first compound 0.01 µM): 0.539
- relative viability (NCI-H2170; first compound 0.03162 µM): 0.56
- relative viability (NCI-H2170; first compound 0.1 µM): 0.649
- relative viability (NCI-H358; first compound 0.001 µM): 0.214
- relative viability (NCI-H358; first compound 0.003162 µM): 0.264
- relative viability (NCI-H358; first compound 0.01 µM): 0.229
- relative viability (NCI-H358; first compound 0.03162 µM): 0.195
- relative viability (NCI-H358; first compound 0.1 µM): 0.15
- relative viability (NCI-H520; first compound 0.001 µM): 0.473
- relative viability (NCI-H520; first compound 0.003162 µM): 0.653
- relative viability (NCI-H520; first compound 0.01 µM): 0.613
- relative viability (NCI-H520; first compound 0.03162 µM): 0.564
- relative viability (NCI-H520; first compound 0.1 µM): 0.649
- relative viability (NCI-H522; first compound 0.01 µM): 0.667
- relative viability (NCI-H522; first compound 0.03162 µM): 0.699
- relative viability (NCI-H522; first compound 0.1 µM): 0.539
- relative viability (SK-MES-1; first compound 0.001 µM): 0.409
- relative viability (SK-MES-1; first compound 0.003162 µM): 0.487
- relative viability (SK-MES-1; first compound 0.01 µM): 0.575
- relative viability (SK-MES-1; first compound 0.03162 µM): 0.617
- relative viability (SK-MES-1; first compound 0.1 µM): 0.46
- relative viability (SW 1573; first compound 0.001 µM): 0.455
- relative viability (SW 1573; first compound 0.003162 µM): 0.622
- relative viability (SW 1573; first compound 0.01 µM): 0.924
- relative viability (SW 1573; first compound 0.03162 µM): 0.533
- relative viability (SW 1573; first compound 0.1 µM): 0.297
- relative viability (SW 900; first compound 0.003162 µM): 0.579
- relative viability (SW 900; first compound 0.01 µM): 0.724
- relative viability (SW 900; first compound 0.03162 µM): 0.743
- relative viability (SW 900; first compound 0.1 µM): 0.577
